The target in data set [1] is T1, Amine oxidase [flavin-containing] A (Homo sapiens, UniProt P21397).
T1 sequence (P21397 whole entry): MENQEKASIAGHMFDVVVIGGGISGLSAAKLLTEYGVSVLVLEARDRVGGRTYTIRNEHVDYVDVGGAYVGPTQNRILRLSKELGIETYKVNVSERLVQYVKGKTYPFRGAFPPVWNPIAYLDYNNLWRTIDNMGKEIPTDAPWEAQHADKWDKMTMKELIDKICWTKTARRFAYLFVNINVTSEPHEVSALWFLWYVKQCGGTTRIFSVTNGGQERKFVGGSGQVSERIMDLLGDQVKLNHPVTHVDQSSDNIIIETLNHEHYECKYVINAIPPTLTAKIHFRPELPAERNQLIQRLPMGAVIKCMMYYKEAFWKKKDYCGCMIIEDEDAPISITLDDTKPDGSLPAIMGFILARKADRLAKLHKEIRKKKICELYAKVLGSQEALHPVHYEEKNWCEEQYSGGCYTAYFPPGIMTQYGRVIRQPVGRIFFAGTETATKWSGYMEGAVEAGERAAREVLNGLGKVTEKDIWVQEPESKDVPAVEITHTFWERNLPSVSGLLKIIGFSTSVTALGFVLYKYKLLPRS
The data set is described as follows: Inhibition of recombinant human MAO-A expressed in Sf9 cells preincubated for 15 min followed by addition of p-tyramine and measured after 60 min by Luminex assay.

The species entered for another data set is Homo sapiens. The experiment in a line: Selectivity index, ratio of IC50 for recombinant human MAO-A expressed in Sf9 cells to IC50 for recombinant human MAO-B expressed in Sf9 cells.
Data set [2] concerns the target T2, Amine oxidase [flavin-containing] B (Homo sapiens, UniProt P27338).
T2 sequence (P27338 whole entry): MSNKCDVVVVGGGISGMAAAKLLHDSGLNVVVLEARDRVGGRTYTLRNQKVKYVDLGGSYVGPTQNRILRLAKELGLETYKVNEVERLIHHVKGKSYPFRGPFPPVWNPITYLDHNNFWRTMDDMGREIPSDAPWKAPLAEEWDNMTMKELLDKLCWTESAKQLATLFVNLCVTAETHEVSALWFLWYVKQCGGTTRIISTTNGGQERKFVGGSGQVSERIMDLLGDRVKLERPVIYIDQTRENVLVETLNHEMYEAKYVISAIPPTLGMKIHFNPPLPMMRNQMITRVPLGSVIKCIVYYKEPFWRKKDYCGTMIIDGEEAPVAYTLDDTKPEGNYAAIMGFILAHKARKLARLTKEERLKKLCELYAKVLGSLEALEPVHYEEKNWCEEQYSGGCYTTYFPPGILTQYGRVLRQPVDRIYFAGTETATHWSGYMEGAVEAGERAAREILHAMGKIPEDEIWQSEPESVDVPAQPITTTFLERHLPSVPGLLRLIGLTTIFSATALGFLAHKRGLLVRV
The data set is described as follows: Inhibition of recombinant human MAO-B expressed in Sf9 cells preincubated for 15 min followed by addition of benzylamine and measured after 60 min by Luminex assay.

Data set [3] is described as follows: Toxicity in MPTP-induced C57BL/6 mouse model of Parkinson's disease assessed as effect on locomotor activity by measuring rearing activity at 10 mg/kg, ip pretreated for 15 mins followed by MPTP challenge and measured after 5 days post MPTP challenge. Type of data set: organism-based. The settings on record: in vivo, 120 h, time 5 day.
The nature of data set [4]: Cmax in Sprague dawley rat at 1 mg/kg, iv measured upto 24 hrs. It counts as ADME, organism-based. Also on record: route intravenous, dose 1 mg/kg, time <=24. The settings on record: in vivo.
Data set [5] is described as follows: AUC (0-t) in Sprague dawley rat at 1 mg/kg, iv measured upto 24 hrs. It counts as ADME, organism-based. Also on record: route intravenous, dose 1 mg/kg, time <=24. The settings on record: in vivo.
A short description of data set [6]: Half life in Sprague dawley rat at 1 mg/kg, iv measured upto 24 hrs. It counts as ADME, organism-based. The settings on record: in vivo.
Data set [7] in a line: Volume of distribution at steady state in Sprague dawley rat at 1 mg/kg, iv measured upto 24 hrs. Type of data set: ADME, organism-based. The settings on record: in vivo, read-out: Vdss.
A short description of data set [8]: Clearance in Sprague dawley rat at 1 mg/kg, iv measured upto 24 hrs. Type of data set: ADME, organism-based. The settings on record: in vivo.
Data set [9] can be described thus: Cmax in Sprague dawley rat at 5 mg/kg, po measured upto 24 hrs. The settings on record: in vivo. It counts as ADME, organism-based. Also on record: route oral, dose 5 mg/kg, time <=24.
Data set [10] in a line: AUC (0-t) in Sprague dawley rat at 5 mg/kg, po measured upto 24 hrs. Also on record: route oral, dose 5 mg/kg, time <=24. The settings on record: in vivo. It counts as ADME, organism-based.
Data set [11] can be described thus: Half life in Sprague dawley rat at 5 mg/kg, po measured upto 24 hrs. It counts as ADME, organism-based. The settings on record: in vivo.
A short description of data set [12]: Oral bioavailability in Sprague dawley rat at 5 mg/kg measured upto 24 hrs. It counts as ADME, organism-based. The settings on record: in vivo.
Data set [13] can be described thus: Cmax in Cynomolgus monkey at 1 mg/kg, iv measured upto 24 hrs. Type of data set: ADME, organism-based, Macaca fascicularis. Also on record: route intravenous, dose 1 mg/kg, time <=24. The settings on record: in vivo.
Data set [14] can be described thus: AUC (0-t) in Cynomolgus monkey at 1 mg/kg, iv measured upto 24 hrs. The settings on record: in vivo, 24 h. Type of data set: ADME, organism-based, Macaca fascicularis. Also on record: route intravenous, dose 1 mg/kg, time <=24.
Data set [15] is described as follows: Half life in Cynomolgus monkey at 1 mg/kg, iv measured upto 24 hrs. The settings on record: in vivo. Type of data set: ADME, organism-based, Macaca fascicularis.
A short description of data set [16]: Volume of distribution at steady state in Cynomolgus monkey at 1 mg/kg, iv measured upto 24 hrs. The settings on record: in vivo, read-out: Vdss. Type of data set: ADME, organism-based, Macaca fascicularis.
Data set [17] is described as follows: Cmax in Cynomolgus monkey rat at 5 mg/kg, po measured upto 24 hrs. Type of data set: ADME, organism-based, Macaca fascicularis. Also on record: route oral, dose 5 mg/kg, time <=24. The settings on record: in vivo.
The nature of data set [18]: AUC (0-t) in Cynomolgus monkey rat at 5 mg/kg, po measured upto 24 hrs. The settings on record: in vivo. Type of data set: ADME, organism-based, Macaca fascicularis. Also on record: route oral, dose 5 mg/kg, time <=24.
Data set [19] can be described thus: Half life in Cynomolgus monkey rat at 5 mg/kg, po measured upto 24 hrs. It counts as ADME, organism-based, Macaca fascicularis. The settings on record: in vivo.
Data set [20] in a line: Oral bioavailability in Cynomolgus monkey rat at 5 mg/kg measured upto 24 hrs. Type of data set: ADME, organism-based, Macaca fascicularis. The settings on record: in vivo.

Some results are limits rather than exact numbers.

As a reminder, the IC50 is the midpoint of a concentration-inhibition curve. Take `NC(=O)[C@@H]1C[C@H](F)CN1Cc1ccc(OCc2cccc(F)c2)cc1F`: in data set [1], the IC50 stood at 29.4 µM. Also, the Ratio IC50 in the data set listed under Homo sapiens came to 979.

As to `C[C@@H]1C[C@@H](C(N)=O)N(Cc2ccc(OCc3cccc(F)c3)cc2)C1`, the IC50 in data set [1] came to 42.2 µM; in [2], 2.18 µM. Further, the Ratio IC50 in the data set listed under Homo sapiens was 19.

For the compound `NC(=O)[C@@H]1C[C@@H](F)CN1Cc1ccc(OCc2cccc(F)c2)cc1Cl`, in [2], the IC50 was > 10 µM.

For `NC(=O)[C@@H]1C[C@H](F)CN1Cc1ccc(OCc2cccc(F)c2)cc1Cl`, the IC50 in data set [1] is 5.18 µM; in data set [2], 0.14 µM. In addition, in the data set filed under Homo sapiens, the Ratio IC50 amounted to 37.

On to `NC(=O)[C@@H]1C[C@@H](O)CN1Cc1ccc(OCc2cccc(F)c2)cc1`, for which the IC50 in data set [2] was > 10 µM.

Turning to `NC(=O)[C@@H]1C[C@@H](F)CN1Cc1ccc(OCc2cccc(F)c2)cc1`, the figures for the IC50 in [1] and in [2] were 24 µM and 0.772 µM, respectively. For the same compound, in the data set filed under Homo sapiens, the Ratio IC50 is 31.

For orientation: Cmax means the peak of the concentration-time curve. Broadly, the AUC(0-t) is the area under the concentration-time curve up to a stated or last time point. Usually half-life stands for the time needed for the level to fall by half in the phase considered. Broadly, the clearance is the rate of elimination divided by the concentration. With `C[C@H](NCc1ccc(OCc2cccc(F)c2)cc1)C(N)=O` [SAFINAMIDE], the Activity entry in data set [3] was “Non-Toxic”. Further, the Cmax in [4] was 282 ng/mL; in data set [9], 423 ng/mL; in data set [13] it was 1080 ng/mL; in [17] it was 1970 ng/mL. The AUC(0-t) at 24 h in [5] stood at 253 ng·h/mL; in data set [10] it was 795 ng·h/mL; in data set [18] it was 13100 ng·h/mL. The half-life is 1.03 h in data set [6], 1.02 h in [11], 2.74 h in data set [15] and 4.6 h in [19]. For the same compound, the Vd in [7] came to 4.21 L/kg; in [16], 7.15 L/kg. Further, in [8], the clearance came to 65.5 mL/min/kg. Moreover, the results for the bioavailability in [12] and in data set [20] were 63.2% and 111%, respectively. In data set [14], this compound showed an AUCt of 2120 ng·h/mL.

As to `Cc1cc(OCc2cccc(F)c2)ccc1CN1C[C@H](F)C[C@H]1C(N)=O`, in data set [2], the IC50 is > 10 µM.

In the case of `NC(=O)[C@@H]1C[C@H](O)CN1Cc1ccc(OCc2cccc(F)c2)cc1`, the half-inhibitory concentration (IC50) stood at 84.5 µM in data set [1] and 0.431 µM in [2]. Further, the Ratio IC50 in the data set filed under Homo sapiens was 196.

With `NC(=O)[C@@H]1C[C@@H](F)CN1Cc1ccc(OCc2cccc(F)c2)cc1F`, the values for the IC50 in data set [1] and in data set [2] were 28.2 µM and 2.19 µM, respectively. For the same compound, the Ratio IC50 in the data set listed under Homo sapiens was determined as 13.

In the case of `NC(=O)[C@@H]1CCCN1Cc1ccc(OCc2cccc(F)c2)cc1`, the Ratio IC50 in the data set filed under Homo sapiens was 168. Besides, the Cmax turned out to be 809 ng/mL in data set [4] and 163 ng/mL in data set [9]. Also, the exposure AUC(0-t) at 24 h was found to be 347 ng·h/mL in data set [5] and 284 ng·h/mL in [10]. Further, the half-life in data set [6] is 0.37 h; in [11] it was 1.27 h. In addition, the Vd in data set [7] is 1.11 L/kg. Also, the clearance in data set [8] is 47.1 mL/min/kg. In data set [12], the bioavailability is 16.3%.

On to `C[C@H]1C[C@@H](C(N)=O)N(Cc2ccc(OCc3cccc(F)c3)cc2)C1`, for which the results for the IC50 in data set [1] and in [2] were 27.5 µM and 0.082 µM, respectively. For the same compound, the Ratio IC50 in the data set listed under Homo sapiens was determined as 335. Besides, the highest concentration (Cmax) in [4] was 174 ng/mL; in [9], 69.1 ng/mL. Further, the AUC(0-t) at 24 h in data set [5] was found to be 209 ng·h/mL; in [10] it was 176 ng·h/mL. Also, the half-life in data set [6] is 0.73 h; in data set [11] it was 0.96 h. Besides, the Vd in data set [7] is 4.56 L/kg. The clearance in [8] is 79.1 mL/min/kg. In [12], the bioavailability turned out to be 16.9%.

As for `Cc1cc(OCc2cccc(F)c2)ccc1CN1C[C@@H](F)C[C@H]1C(N)=O`, the IC50 in [1] is 20.5 µM; in [2] it was 0.82 µM. Also, the Ratio IC50 in the data set filed under Homo sapiens was found to be 25.

For the compound `NC(=O)[C@H]1C[C@H](F)CN1Cc1ccc(OCc2cccc(F)c2)cc1`, the IC50 in data set [1] came to 6.74 µM; in [2], 0.709 µM. Also, the Ratio IC50 in the data set listed under Homo sapiens came out at 10.

Regarding `NC(=O)[C@H]1C[C@@H](F)CN1Cc1ccc(OCc2cccc(F)c2)cc1`, the IC50 in data set [2] was > 10 µM.

The values above are taken from ChEMBL document CHEMBL5042493, “Enhancing monoamine oxidase B inhibitory activity via chiral fluorination: Structure-activity relationship, biological evaluation, and molecular docking study” (Eur J Med Chem, 2022).
